The subject of assay [1] is bleomycin-induced lung fibrosis. The following applies: in-vivo, bleomycin-induced lung fibrosis model in mice (Cortijo et al. 2009); cited from earlier work.
In a further assay the target is T1, PDE4B1 (Homo sapiens, UniProt Q07343).
T1 construct: made in house; host or cells: SF21 insect cells (baculovirus; pCR-Bac vector)
Kind of assay: Inhibition of PDE4B1 activity (SPA, [3H]cAMP). It counts as biochemical. Particulars: recombinant PDE4B1 expressed in SF21 cells; 0.5 pM [sic] cAMP; values given as bins; read-out: PDE4B1 inhibitory values measured as −logIC50 (converted). The essentials: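 Recombinant human PDE4B1 (Sf21 cell 1000 g supernatant) in 20 mM Tris pH 7.4, 0.1 mg/ml BSA, 5 mM Mg2+, […] with [3H]cAMP tracer, enzyme giving 10-20% conversion. After 5 min preincubation at 37 °C, 15 min reaction, stopped by SPA beads with IBMX; IC50 by non-linear regression.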

A further assay deals with T2, human PDE5 (Homo sapiens, UniProt O76074).
T2 construct: from tissue; host or cells: human platelets from fresh donor blood (10,000 g supernatant of sonicated platelets)
Kind of assay: Inhibition of PDE5 activity (SPA, [3H]cGMP, platelet lysate). It counts as biochemical. Particulars: PDE5 from human platelet lysate; values given as bins; read-out: PDE5A inhibitory values measured as −logIC50 (converted). The gist of the method: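 Human platelet lysate served as PDE5 source, with 1 μM motapizone and 10 nM PDE2 inhibitor present; […] plus [3H]cGMP tracer, pH 7.4, 5 mM Mg2+, 10-20% substrate turnover. After 5 min preincubation, 15 min at 37 °C, stopped with SPA beads and IBMX; IC50 by non-linear regression.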

Structures are written as SMILES.

T1 sequence (Q07343 whole entry): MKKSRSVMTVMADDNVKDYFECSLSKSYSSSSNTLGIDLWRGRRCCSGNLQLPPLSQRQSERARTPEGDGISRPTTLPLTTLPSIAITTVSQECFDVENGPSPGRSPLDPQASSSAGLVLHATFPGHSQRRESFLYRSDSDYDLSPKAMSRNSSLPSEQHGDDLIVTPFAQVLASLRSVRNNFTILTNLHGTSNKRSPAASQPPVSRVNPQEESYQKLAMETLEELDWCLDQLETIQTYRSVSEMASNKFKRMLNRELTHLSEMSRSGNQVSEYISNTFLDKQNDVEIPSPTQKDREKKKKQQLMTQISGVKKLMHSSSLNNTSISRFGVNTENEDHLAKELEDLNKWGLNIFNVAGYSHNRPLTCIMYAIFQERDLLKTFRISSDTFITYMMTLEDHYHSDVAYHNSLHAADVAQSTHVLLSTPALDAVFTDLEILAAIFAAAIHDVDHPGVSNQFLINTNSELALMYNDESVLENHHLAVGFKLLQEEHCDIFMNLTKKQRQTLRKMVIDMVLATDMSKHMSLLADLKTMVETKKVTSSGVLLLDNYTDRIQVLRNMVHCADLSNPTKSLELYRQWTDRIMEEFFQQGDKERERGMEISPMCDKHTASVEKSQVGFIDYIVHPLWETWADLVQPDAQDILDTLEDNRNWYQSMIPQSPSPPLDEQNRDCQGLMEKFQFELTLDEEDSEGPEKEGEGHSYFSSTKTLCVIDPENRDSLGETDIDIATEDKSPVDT

`O=C(Nc1c(Cl)cncc1Cl)c1ccc(OC(F)F)c(OCC2CC2)c1` [roflumilast]: the fibrosis development entry in assay [1] is “inhibit fibrosis development”. For `CCOc1cc2c(cc1OC)C(c1ccc(C(=O)N3CCC(n4c(=O)c5sc(-c6ccc(F)cc6OC)cc5n(Cc5nnn(CC)n5)c4=O)CC3)cc1)=N[C@@H]1CCSC[C@H]21` [Example 32, 3-[1-({4-[(4aR,10bR)-9-ethoxy-8-methoxy-3,4,4a,10b-tetrahydro-1H-thiopyrano[4,3-c]isoquinolin-6-yl]phenyl}carbonyl)piperidin-4-yl]-1-[(2-ethyl-2H-tetrazol-5-yl)methyl]-6-(4-fluoro-2-methoxyphenyl)thieno[3,2-d]pyrimidine-2,4(1H,3H)-dione], the figures for the IC50 at PDE4B1 and at human PDE5 were 1 to 10 nM and less than 10 nM, respectively. With `CCOc1cc2c(cc1OC)C(c1ccc(C(=O)N3CCC(n4c(=O)c5sc(-c6ccccc6)cc5n(Cc5cnn(CC)n5)c4=O)CC3)cc1)=N[C@@H]1CCSC[C@H]21` [Example 21, 3-[1-({4-[(4aR,10bR)-9-ethoxy-8-methoxy-3,4,4a,10b-tetrahydro-1H-thiopyrano[4,3-c]isoquinolin-6-yl]phenyl}carbonyl)piperidin-4-yl]-1-[(2-ethyl-2H-1,2,3-triazol-4-yl)methyl]-6-phenylthieno[3,2-d]pyrimidine-2,4(1H,3H)-dione], the results for the IC50 on PDE4B1 and at human PDE5 were 1 to 10 nM and 10 to 100 nM, respectively. Regarding `CCOc1cc2c(cc1OC)C(c1ccc(C(=O)N3CCC(n4c(=O)c5sc(-c6ccccc6)cc5n(Cc5cn(CC)nn5)c4=O)CC3)cc1)=N[C@@H]1CCSC[C@H]21` [Example 23, 3-[1-({4-[(4aR,10bR)-9-ethoxy-8-methoxy-3,4,4a,10b-tetrahydro-1H-thiopyrano[4,3-c]isoquinolin-6-yl]phenyl}carbonyl)piperidin-4-yl]-1-[(1-ethyl-1H-1,2,3-triazol-4-yl)methyl]-6-phenylthieno[3,2-d]pyrimidine-2,4(1H,3H)-dione], the IC50 was 1 to 10 nM at PDE4B1 and greater than 100 nM at human PDE5. The matching figures for `CCOc1cc2c(cc1OC)C(c1ccc(C(=O)N3CCC(n4c(=O)c5sc(-c6ccccc6)cc5n(Cc5nnn(COC)n5)c4=O)CC3)cc1)=N[C@@H]1CCSC[C@H]21` [Example 28, 3-[1-({4-[(4aR,10bR)-9-ethoxy-8-methoxy-3,4,4a,10b-tetrahydro-1H-thiopyrano[4,3-c]isoquinolin-6-yl]phenyl}carbonyl)piperidin-4-yl]-1-{[2-(methoxymethyl)-2H-tetrazol-5-yl]methyl}-6-phenylthieno[3,2-d]pyrimidine-2,4(1H,3H)-dione]: less than 1 nM and less than 10 nM.

For `CCOc1cc2c(cc1OC)C(c1ccc(C(=O)N3CCC(n4c(=O)c5sc(-c6ccccc6F)cc5n(Cc5nc(CC)no5)c4=O)CC3)cc1)=N[C@@H]1CCSC[C@H]21` [Example 48, 3-[1-({4-[(4aR,10bR)-9-ethoxy-8-methoxy-3,4,4a,10b-tetrahydro-1H-thiopyrano[4,3-c]isoquinolin-6-yl]phenyl}carbonyl)piperidin-4-yl]-1-[(3-ethyl-1,2,4-oxadiazol-5-yl)methyl]-6-(2-fluorophenyl)thieno[3,2-d]pyrimidine-2,4(1H,3H)-dione], the IC50 at PDE4B1 is 1 to 10 nM; on human PDE5 it was less than 10 nM. Taken in the same sequence, the figures for `CCOc1cc2c(cc1OC)C(c1ccc(C(=O)N3CCC(n4c(=O)c5sc(-c6ccccc6)cc5n(Cc5nnc(COC)o5)c4=O)CC3)cc1)=N[C@@H]1CCSC[C@H]21` [Example 8, 3-[1-({4-[(4aR,10bR)-9-ethoxy-8-methoxy-3,4,4a,10b-tetrahydro-1H-thiopyrano[4,3-c]isoquinolin-6-yl]phenyl}carbonyl)piperidin-4-yl]-1-{[5-(methoxymethyl)-1,3,4-oxadiazol-2-yl]methyl}-6-phenylthieno[3,2-d]pyrimidine-2,4(1H,3H)-dione] were less than 1 nM and 10 to 100 nM.

With `CCOc1cc2c(cc1OC)C(c1ccc(C(=O)N3CCC(n4c(=O)c5sc(-c6ccccc6)cc5n(Cc5nc(CCCOC)no5)c4=O)CC3)cc1)=N[C@@H]1CCSC[C@H]21` [Example 50, 3-[1-({4-[(4aR,10bR)-9-ethoxy-8-methoxy-3,4,4a,10b-tetrahydro-1H-thiopyrano[4,3-c]isoquinolin-6-yl]phenyl}carbonyl)piperidin-4-yl]-1-{[3-(3-methoxypropyl)-1,2,4-oxadiazol-5-yl]methyl}-6-phenylthieno[3,2-d]pyrimidine-2,4(1H,3H)-dione], the IC50 on PDE4B1 was less than 1 nM; on human PDE5 it was 10 to 100 nM. As for `CCOc1cc2c(cc1OC)C(c1ccc(C(=O)N3CCC(n4c(=O)c5sc(-c6ccccc6)cc5n(Cc5nc(CC)no5)c4=O)CC3)cc1)=N[C@@H]1CCSC[C@H]21` [Example 7, 3-(1-{4-[(4aR,10bR)-9-ethoxy-8-methoxy-3,4,4a,10b-tetrahydro-1H-thiopyrano[4,3-c]isoquinolin-6-yl]benzoyl}piperidin-4-yl)-1-[(3-ethyl-1,2,4-oxadiazol-5-yl)methyl]-6-phenylthieno[3,2-d]pyrimidine-2,4(1H,3H)-dione], the IC50 is 1 to 10 nM at PDE4B1 and less than 10 nM at human PDE5. For the molecule `CCOc1cc2c(cc1OC)C(c1ccc(C(=O)N3CCC(n4c(=O)c5sc(-c6ccccc6F)cc5n(Cc5nnn(CC)n5)c4=O)CC3)cc1)=N[C@@H]1CCSC[C@H]21` [Example 38, 3-[1-({4-[(4aR,10bR)-9-ethoxy-8-methoxy-3,4,4a,10b-tetrahydro-1H-thiopyrano[4,3-c]isoquinolin-6-yl]phenyl}carbonyl)piperidin-4-yl]-1-[(2-ethyl-2H-tetrazol-5-yl)methyl]-6-(2-fluorophenyl)thieno[3,2-d]pyrimidine-2,4(1H,3H)-dione], the results for the IC50 at PDE4B1 and at human PDE5 were greater than 10 nM and less than 10 nM, respectively. For `CCOc1cc2c(cc1OC)C(c1cccc(C(=O)N3CCC(n4c(=O)c5sc(-c6ccccc6)cc5n(Cc5nc(CC)no5)c4=O)CC3)c1)=N[C@@H]1CCSC[C@H]21` [Example 27, 3-[1-({3-[(4aR,10bR)-9-ethoxy-8-methoxy-3,4,4a,10b-tetrahydro-1H-thiopyrano[4,3-c]isoquinolin-6-yl]phenyl}carbonyl)piperidin-4-yl]-1-[(3-ethyl-1,2,4-oxadiazol-5-yl)methyl]-6-phenylthieno[3,2-d]pyrimidine-2,4(1H,3H)-dione], the IC50 at PDE4B1 is 1 to 10 nM; on human PDE5, less than 10 nM.

Consider `CCOc1cc2c(cc1OC)C(c1ccc(C(=O)N3CCC(n4c(=O)c5sc(-c6ccccc6)cc5n(Cc5nc(CSC)no5)c4=O)CC3)cc1)=N[C@@H]1CCSC[C@H]21` [Example 11, 3-[1-({4-[(4aR,10bR)-9-ethoxy-8-methoxy-3,4,4a,10b-tetrahydro-1H-thiopyrano[4,3-c]isoquinolin-6-yl]phenyl}carbonyl)piperidin-4-yl]-1-({3-[(methylsulfanyl)methyl]-1,2,4-oxadiazol-5-yl}methyl)-6-phenylthieno[3,2-d]pyrimidine-2,4(1H,3H)-dione], for which the IC50 on PDE4B1 was 1 to 10 nM; on human PDE5, less than 10 nM.

Consider `CCOc1cc2c(cc1OC)C(c1ccc(C(=O)N3CCC(n4c(=O)c5sc(-c6ccccc6)cc5n(Cc5cc(C)on5)c4=O)CC3)cc1)=N[C@@H]1CCSC[C@H]21` [Example 6, 3-[1-({4-[(4aR,10bR)-9-ethoxy-8-methoxy-3,4,4a,10b-tetrahydro-1H-thiopyrano[4,3-c]isoquinolin-6-yl]phenyl}carbonyl)piperidin-4-yl]-1-[(5-methylisoxazol-3-yl)methyl]-6-phenylthieno[3,2-d]pyrimidine-2,4(1H,3H)-dione], for which the IC50 on PDE4B1 is 1 to 10 nM; on human PDE5, 10 to 100 nM. Turning to `CCOc1cc2c(cc1OC)C(c1ccc(C(=O)N3CCC(n4c(=O)c5sc(-c6ccccc6)cc5n(Cc5csc(C)n5)c4=O)CC3)cc1)=N[C@@H]1CCSC[C@H]21` [Example 10, 3-[1-({4-[(4aR,10bR)-9-ethoxy-8-methoxy-3,4,4a,10b-tetrahydro-1H-thiopyrano[4,3-c]isoquinolin-6-yl]phenyl}carbonyl)piperidin-4-yl]-1-[(2-methyl-1,3-thiazol-4-yl)methyl]-6-phenylthieno[3,2-d]pyrimidine-2,4(1H,3H)-dione], the IC50 on PDE4B1 was 1 to 10 nM; at human PDE5, greater than 100 nM. On to `CCOc1cc2c(cc1OC)C(c1ccc(C(=O)N3CCC(n4c(=O)c5sc(-c6ccccc6)cc5n(Cc5cnn(CC)c5)c4=O)CC3)cc1)=N[C@@H]1CCSC[C@H]21` [Example 17, 3-[1-({4-[(4aR,10bR)-9-ethoxy-8-methoxy-3,4,4a,10b-tetrahydro-1H-thiopyrano[4,3-c]isoquinolin-6-yl]phenyl}carbonyl)piperidin-4-yl]-1-[(1-ethyl-1H-pyrazol-4-yl)methyl]-6-phenylthieno[3,2-d]pyrimidine-2,4(1H,3H)-dione], for which the IC50 at PDE4B1 is 1 to 10 nM; on human PDE5, greater than 100 nM. `CCOc1cc2c(cc1OC)C(c1ccc(C(=O)N3CCC(n4c(=O)c5sc(-c6ccccc6)cc5n(Cn5nnc(CC)n5)c4=O)CC3)cc1)=N[C@@H]1CCSC[C@H]21` [Example 57, 3-[1-({4-[(4aR,10bR)-9-ethoxy-8-methoxy-3,4,4a,10b-tetrahydro-1H-thiopyrano[4,3-c]isoquinolin-6-yl]phenyl}carbonyl)piperidin-4-yl]-1-[(5-ethyl-2H-tetrazol-2-yl)methyl]-6-phenylthieno[3,2-d]pyrimidine-2,4(1H,3H)-dione]: the IC50 was 1 to 10 nM at PDE4B1 and 10 to 100 nM on human PDE5.

The values are drawn from patent US9018175B2 (Takeda GmbH, priority 2009, dated 2015).
